Measurements as given in patent US20220347196A1, “COMPOSITIONS AND METHODS FOR IMPROVING GASTROINTESTINAL FUNCTION IN SUBJECTS WITH RENAL DISEASE” (priority 2021, published 2022).

What was measured:
[1] = test system: subjects with ESRD on hemodialysis with constipation; experiment: Bowel movement consistency and regularity after 12 week 2′-FL treatment; format: in vivo, human; details: five subjects, 3.3 grams/day for 12 weeks
Description: Five subjects with ESRD on hemodialysis with constipation were treated with 2′-FL (3.3 grams/day) for 12 weeks.

[2] = test system: Patients With ESRD On Hemodialysis With Constipation; experiment: Nutrition, hemoglobin and inflammatory biomarkers measured each month during 12 week HMO treatment; format: in vivo, human
Description: Five subjects with ESRD on hemodialysis with constipation were treated with 2′-FL (3.3 grams/day) for 12 weeks. Meanwhile, nutrition, hemoglobin, and inflammatory biomarkers were measured in each of the these patients at each month during the treatment.

[3] = Patient 1, month of treatment 0 (baseline), 3.3 grams/day
[4] = Patient 1, month of treatment 1, 3.3 grams/day
[5] = Patient 1, month of treatment 2, 3.3 grams/day
[6] = Patient 1, month of treatment 3, 3.3 grams/day
[7] = Patient 2, month of treatment 0 (baseline), 3.3 grams/day
[8] = Patient 2, month of treatment 1, 3.3 grams/day
[9] = Patient 2, month of treatment 2, 3.3 grams/day
[10] = Patient 2, month of treatment 3, 3.3 grams/day
[11] = Patient 3, month of treatment 0 (baseline), 3.3 grams/day
[12] = Patient 3, month of treatment 1, 3.3 grams/day
[13] = Patient 3, month of treatment 2, 3.3 grams/day
[14] = Patient 3, month of treatment 3, 3.3 grams/day
[15] = Patient 4, month of tx 0 (baseline), 3.3 grams/day
[16] = Patient 4, month of tx 1, 3.3 grams/day
[17] = Patient 4, month of tx 2, 3.3 grams/day
[18] = Patient 4, month of tx 3, 3.3 grams/day
[19] = Patient 5, month of treatment 0 (baseline), 3.3 grams/day
[20] = Patient 5, month of treatment 1, 3.3 grams/day
[21] = Patient 5, month of treatment 2, 3.3 grams/day
[22] = Patient 5, month of treatment 3, 3.3 grams/day
[23] = five subjects, 3.3 grams/day for 12 weeks

In the case of 2′-fucosyllactose [2′-FL], the bowel movement consistency [1] is reported as “from hard stool to soft”, the “bowel movement regularity (on average)” value [1] is reported as “from one bowel movement every other day to one bowel movement every day” and the Albumin [2, 3] is reported as 3.6 g/dL. It also gave a Ferritin [2, 3] of 548 ng/mL, a Hg [2, 3] of 10.6 g/dL and an Albumin [2, 4] of 3.7 g/dL. For the same substance, the CRP [2, 4] was 0.7 mg/L, the Ferritin [2, 4] was 546 ng/mL and the Hg [2, 4] was 10.5 g/dL. The Albumin [2, 5] was 3.8 g/dL, the CRP [2, 5] was 0.5 mg/L and the Ferritin [2, 5] was 503 ng/mL. The Hg [2, 5] was 11.2 g/dL, the Albumin [2, 6] was 3.5 g/dL and the CRP [2, 6] was 0.3 mg/L. For the same substance, the Ferritin [2, 6] was 364 ng/mL, the Hg [2, 6] was 10.7 g/dL and the Albumin [2, 7] was 4.2 g/dL. It also gave a Ferritin [2, 7] of 1250 ng/mL, a Hg [2, 7] of 11.2 g/dL and an Albumin [2, 8] of 4.3 g/dL. For the same substance, the CRP [2, 8] was 6.2 mg/L, the Ferritin [2, 8] was 1188 ng/mL and the Hg [2, 8] was 11.3 g/dL. For the same substance, the Albumin [2, 9] was 4.2 g/dL, the CRP [2, 9] was 4.3 mg/L and the Ferritin [2, 9] was 1000 ng/mL. The Hg [2, 9] was 10.6 g/dL, the Albumin [2, 10] was 4.2 g/dL and the CRP [2, 10] was 2.3 mg/L. The Ferritin [2, 10] was 899 ng/mL, the Hg [2, 10] was 10.2 g/dL and the Albumin [2, 11] was 3.9 g/dL. For the same substance, the Ferritin [2, 11] was 1243 ng/mL, the Hg [2, 11] was 10.5 g/dL and the Albumin [2, 12] was 4 g/dL. The CRP [2, 12] was 19 mg/L, the Ferritin [2, 12] was 1135 ng/mL and the Hg [2, 12] was 11.3 g/dL. For the same substance, the Albumin [2, 13] was 3.9 g/dL, the CRP [2, 13] was 1.9 mg/L and the Ferritin [2, 13] was 827 ng/mL. For the same substance, the Hg [2, 13] was 10.9 g/dL, the Albumin [2, 14] was 4 g/dL and the CRP [2, 14] was 1.6 mg/L. The Ferritin [2, 14] was 907 ng/mL, the Hg [2, 14] was 11.2 g/dL and the Albumin [2, 15] was 3.9 g/dL. It also gave a Ferritin [2, 15] of 1487 ng/mL, a Hg [2, 15] of 10.8 g/dL and an Albumin [2, 16] of 3.9 g/dL. The CRP [2, 16] was 2 mg/L, the Ferritin [2, 16] was 1208 ng/mL and the Hg [2, 16] was 10.5 g/dL. The Albumin [2, 17] was 3.9 g/dL, the CRP [2, 17] was 1.5 mg/L and the Ferritin [2, 17] was 749 ng/mL. For the same substance, the Hg [2, 17] was 11.3 g/dL, the Albumin [2, 18] was 3.8 g/dL and the CRP [2, 18] was 1.5 mg/L. It also gave a Ferritin [2, 18] of 985 ng/mL, a Hg [2, 18] of 11.4 g/dL and an Albumin [2, 19] of 4.1 g/dL. The Ferritin [2, 19] was 580 ng/mL, the Hg [2, 19] was 12.2 g/dL and the Albumin [2, 20] was 4.1 g/dL. It also gave a CRP [2, 20] of 27.5 mg/L, a Ferritin [2, 20] of 431 ng/mL and a Hg [2, 20] of 12.6 g/dL. It also gave an Albumin [2, 21] of 3.9 g/dL, a CRP [2, 21] of 28 mg/L and a Ferritin [2, 21] of 313 ng/mL. The Hg [2, 21] was 12.2 g/dL, the Albumin [2, 22] was 3.8 g/dL and the CRP [2, 22] was 12.4 mg/L. For the same substance, the Ferritin [2, 22] was 332 ng/mL, the Hg [2, 22] was 12 g/dL and the “anemia (hemoglobin), average” value [2, 23] was “improvement or stabilization”. For the same substance, the “nutrition (albumin), average” value [2, 23] was “improvement or stabilization”, the “serum inflammatory marker CRP (C-reactive protein), average” value [2, 23] was “significant and persistent reduction” and the “serum inflammatory marker ferritin, average” value [2, 23] was “significant and persistent reduction”.
